Here are results for 16 compounds from patent US8871753B2, “Macrocyclic compounds and their use as kinase inhibitors” (Incyte Corporation, priority 2008, dated 2014).

The term IC50 denotes the midpoint of a concentration-inhibition curve.

Holding throughout (type): biochemical
The target of experiment [1] is T1, human JAK2 (a.a. 828-1132) (Homo sapiens, UniProt O60674).
T1 construct: JAK2 (a.a. 828-1132); His tag (N); made in house; host or cells: insect cells (baculovirus)
Put plainly: In vitro JAK kinase assay (HTRF, phosphorylation of a biotinylated peptide), JAK2. In a few lines: (§1)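 Kinase reactions ran at room temperature for 1 h with ATP matched per isoform (JAK1 90 μM, JAK2 30 μM, JAK3 3 μM). After an EDTA stop, the phosphorylated biotin-peptide was read by HTRF using Eu-Py20 and SA-APC after 40 min binding.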
(In general: In TR-FRET formats the signal depends on donor and acceptor labels being close together.)

Experiment [2] deals with T2, human JAK1 (a.a. 837-1142) (Homo sapiens, UniProt P23458).
T2 construct: human JAK1 (a.a. 837-1142); His tag (N); made in house; host or cells: insect cells (baculovirus)
Put plainly: In vitro JAK kinase assay (HTRF, phosphorylation of a biotinylated peptide), JAK1. As to conditions: read-out: JAK1 IC50. In a few lines:
as §1

A further experiment addresses TYK2 (Homo sapiens, UniProt P29597). Briefly: TYK2 kinase inhibition (Table A1).
In experiment [3] the target is T3, human JAK3 (a.a. 781-1124) (Homo sapiens, UniProt P52333).
T3 construct: JAK3 (a.a. 781-1124); His tag (N); made in house; host or cells: insect cells (baculovirus)
Briefly: In vitro JAK kinase assay (HTRF, phosphorylation of a biotinylated peptide), JAK3. How it is done:
The catalytic activity of JAK1, JAK2 or JAK3 was assayed by measuring the phosphorylation of a biotinylated peptide. The phosphorylated peptide was detected by homogenous time resolved fluorescence (HTRF). […] The ATP concentration in the reactions was 90 μM for JAK1, 30 μM for JAK2 and 3 μM for JAK3. Reactions were carried out at room temperature for 1 hr and then stopped with 20 μL 45 mM EDTA, 300 nM SA-APC, 6 nM Eu-Py20 in assay buffer (Perkin Elmer, Boston, Mass.). Binding to the Europium labeled antibody took place for 40 minutes and HTRF signal was measured on a Fusion plate reader (Perkin Elmer, Boston, Mass.).
The catalytic activity of JAK1, JAK2 or JAK3 was assayed by measuring the phosphorylation of a biotinylated peptide. The phosphorylated peptide was detected by homogenous time resolved fluorescence (HTRF). […] Reactions were carried out at room temperature for 1 hr and then stopped with 20 μL 45 mM EDTA, 300 nM SA-APC, 6 nM Eu-Py20 in assay buffer (Perkin Elmer, Boston, Mass.). Binding to the Europium labeled antibody took place for 40 minutes and HTRF signal was measured on a Fusion plate reader (Perkin Elmer, Boston, Mass.).

Structures can show the parent of a compound that is named as a salt. Where two headings read alike, the source gives them in different places.

T3 sequence (P52333 781-1124): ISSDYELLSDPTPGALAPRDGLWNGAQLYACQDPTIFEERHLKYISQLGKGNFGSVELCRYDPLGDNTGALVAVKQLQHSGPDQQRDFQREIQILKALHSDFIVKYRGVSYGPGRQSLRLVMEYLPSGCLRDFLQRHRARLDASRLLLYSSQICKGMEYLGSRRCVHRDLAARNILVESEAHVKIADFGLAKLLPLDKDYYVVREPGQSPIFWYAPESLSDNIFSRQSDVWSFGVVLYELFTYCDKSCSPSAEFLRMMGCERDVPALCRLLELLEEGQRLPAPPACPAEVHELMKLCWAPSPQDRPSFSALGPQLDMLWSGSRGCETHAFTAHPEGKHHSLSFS
Chain of TYK2 (P29597 whole entry): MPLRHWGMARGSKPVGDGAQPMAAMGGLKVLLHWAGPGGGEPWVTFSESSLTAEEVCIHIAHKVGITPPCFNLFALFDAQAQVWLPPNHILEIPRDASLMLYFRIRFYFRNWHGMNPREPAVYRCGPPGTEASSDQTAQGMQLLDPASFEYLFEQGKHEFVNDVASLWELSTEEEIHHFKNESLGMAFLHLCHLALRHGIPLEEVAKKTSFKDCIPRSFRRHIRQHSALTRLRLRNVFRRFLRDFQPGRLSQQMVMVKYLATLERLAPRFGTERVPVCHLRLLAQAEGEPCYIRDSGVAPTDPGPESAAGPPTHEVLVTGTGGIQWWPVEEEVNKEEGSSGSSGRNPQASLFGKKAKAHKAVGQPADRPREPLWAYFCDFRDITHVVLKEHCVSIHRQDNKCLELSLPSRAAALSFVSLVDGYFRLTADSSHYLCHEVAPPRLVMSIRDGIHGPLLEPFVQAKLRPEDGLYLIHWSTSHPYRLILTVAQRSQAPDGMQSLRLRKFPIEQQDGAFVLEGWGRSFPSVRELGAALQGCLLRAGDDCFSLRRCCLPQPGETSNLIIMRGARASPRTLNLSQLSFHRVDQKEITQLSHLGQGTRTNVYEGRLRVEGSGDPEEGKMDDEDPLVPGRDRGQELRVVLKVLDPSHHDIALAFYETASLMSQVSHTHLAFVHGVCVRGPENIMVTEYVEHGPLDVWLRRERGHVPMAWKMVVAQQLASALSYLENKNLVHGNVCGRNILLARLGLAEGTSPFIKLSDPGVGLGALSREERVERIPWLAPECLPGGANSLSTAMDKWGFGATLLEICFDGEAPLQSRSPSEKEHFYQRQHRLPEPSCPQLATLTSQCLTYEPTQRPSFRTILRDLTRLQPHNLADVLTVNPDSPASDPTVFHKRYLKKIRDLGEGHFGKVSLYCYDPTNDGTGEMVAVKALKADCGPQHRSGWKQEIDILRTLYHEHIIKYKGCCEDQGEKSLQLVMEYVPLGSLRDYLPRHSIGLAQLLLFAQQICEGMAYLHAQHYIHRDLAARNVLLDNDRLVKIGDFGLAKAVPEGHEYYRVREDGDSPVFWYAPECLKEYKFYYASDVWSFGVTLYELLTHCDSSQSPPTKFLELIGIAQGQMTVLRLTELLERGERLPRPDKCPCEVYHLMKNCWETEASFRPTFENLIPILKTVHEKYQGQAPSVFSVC
T1 sequence (O60674 828-1132): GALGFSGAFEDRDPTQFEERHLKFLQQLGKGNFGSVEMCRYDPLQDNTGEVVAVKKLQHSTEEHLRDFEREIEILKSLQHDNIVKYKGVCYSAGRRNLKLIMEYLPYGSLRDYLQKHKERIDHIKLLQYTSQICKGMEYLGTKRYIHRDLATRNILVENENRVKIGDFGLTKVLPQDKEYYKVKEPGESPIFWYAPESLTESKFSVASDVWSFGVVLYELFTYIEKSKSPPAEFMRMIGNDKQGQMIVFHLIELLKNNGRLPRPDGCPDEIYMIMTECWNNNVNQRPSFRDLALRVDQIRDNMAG
T2 sequence (P23458 849-1154): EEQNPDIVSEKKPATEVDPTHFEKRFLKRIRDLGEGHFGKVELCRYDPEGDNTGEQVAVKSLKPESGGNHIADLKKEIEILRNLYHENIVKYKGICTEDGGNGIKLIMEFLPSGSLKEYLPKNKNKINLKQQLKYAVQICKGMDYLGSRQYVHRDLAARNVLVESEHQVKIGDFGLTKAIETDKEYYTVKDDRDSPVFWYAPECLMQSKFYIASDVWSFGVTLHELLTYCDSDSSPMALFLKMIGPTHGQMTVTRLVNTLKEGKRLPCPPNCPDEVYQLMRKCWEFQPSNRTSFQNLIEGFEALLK

Take `O=C(C[C@H]1CCCNC1)Nc1ccc2cc1CCc1cncc(c1)Nc1ncc(Cl)c(n1)N2` [Example D195, N-[6-Chloro-2,4,8,18,22-pentaazatetracyclo[14.3.1.1(3,7).1(9,13)]docosa-1(20),3(22),4,6,9(21),10,12,16,18-nonaen-12-yl]-2-[(3R)-piperidin-3-yl]acetamidetris(trifluoroacetate)]: the IC50 in experiment [1] (Table D1) came out at 0.054 µM; in experiment [2] (Table D1), 0.018 µM; at TYK2 (Table D1), 0.031 µM; in experiment [3] (Table D1), 0.355 µM.

Consider `Cc1cc(C(=O)N2CCC(CC(=O)Nc3ccc4cc3CCc3cncc(c3)Nc3ncc(C)c(n3)N4)CC2)no1` [Example C51, 2-{1-[(5-Methylisoxazol-3-yl)carbonyl]piperidin-4-yl}-N-[6-methyl-2,4,8,18,22-pentaazatetracyclo[14.3.1.1(3,7).1(9,13)]docosa-1(20),3(22),4,6,9(21),10,12,16,18-nonaen-12-yl]acetamide bis(trifluoroacetate)], for which the IC50 is 0.371 µM in experiment [1], 0.013 µM in experiment [2], 0.1 µM at TYK2 and more than 0.4 µM in experiment [3].

For `O=C(Nc1cccc(F)c1)N1CCC(CCOc2ccc3cc2CCc2cncc(c2)Nc2ncc(Cl)c(n2)N3)CC1` [Example D169, 4-(2-{[6-Chloro-2,4,8,18,22-pentaazatetracyclo[14.3.1.1(3,7).1(9,13)]docosa-1(20),3(22),4,6,9(21),10,12,16,18-nonaen-12-yl]oxy}ethyl)-N-(3-fluorophenyl)piperidine-1-carboxamide bis(trifluoroacetate)], the IC50 is 0.235 µM in experiment [1] (Table D1), 0.039 µM in experiment [2] (Table D1), more than 0.4 µM against TYK2 (Table D1) and more than 0.4 µM in experiment [3] (Table D1).

Take `CS(=O)(=O)N1CC(CC(=O)Nc2ccc3cc2CCc2cncc(c2)Nc2ncc(Cl)c(n2)N3)C1` [Example D146, N-[6-Chloro-2,4,8,18,22-pentaazatetracyclo[14.3.1.1(3,7).1(9,13)]docosa-1(20),3(22),4,6,9(21),10,12,16,18-nonaen-12-yl]-2-[1-(methylsulfonyl)azetidin-3-yl]acetamide bis(trifluoroacetate)]: the IC50 is 0.149 µM in experiment [1] (Table D1), 0.024 µM in experiment [2] (Table D1), 0.27 µM on TYK2 (Table D1) and more than 1 µM in experiment [3] (Table D1).

In the case of `O=C(COc1ccc2cc1CCc1cncc(c1)Nc1ncc(Cl)c(n1)N2)N1CCNCC1` [Example D229, 6-Chloro-12-(2-oxo-2-piperazin-1-ylethoxy)-2,4,8,18,22-pentaazatetracyclo[14.3.1.1(3,7).1(9,13)]docosa-1(20),3(22),4,6,9(21),10,12,16,18-nonaene tris(trifluoroacetate)], the IC50 was 0.235 µM in experiment [1] (Table D1), 0.153 µM in experiment [2] (Table D1), more than 0.4 µM against TYK2 (Table D1) and more than 0.4 µM in experiment [3] (Table D1).

As for `CC(=O)N1CCN(c2ccc3cc2CCc2cccc(c2)Nc2ncc(Cl)c(n2)N3)CC1` [Example D85, 12-(4-Acetylpiperazin-1-yl)-6-chloro-2,4,8,22-tetraazatetracyclo[14.3.1.1(3,7).1(9,13)]docosa-1(20),3(22),4,6,9(21),10,12,16,18-nonaene bis(trifluoroacetate)], the IC50 in experiment [1] (Table D1) amounted to 0.0066 µM; in experiment [2] (Table D1), 0.024 µM; on TYK2 (Table D1) it was 0.04 µM; in experiment [3] (Table D1), 0.031 µM.

On to `COc1ccccc1N1CCN(C(=O)COc2ccc3cc2CCc2cncc(c2)Nc2ncc(Cl)c(n2)N3)CC1` [Example D241, 6-Chloro-12-{2-[4-(2-methoxyphenyl)piperazin-1-yl]-2-oxoethoxy}-2,4,8,18,22-pentaazatetracyclo[14.3.1.1(3,7).1(9,13)]docosa-1(20),3(22),4,6,9(21),10,12,16,18-nonaene tris(trifluoroacetate)], for which the IC50 in experiment [1] (Table D1) is 0.18 µM; in experiment [2] (Table D1), 0.041 µM; against TYK2 (Table D1) it was more than 0.4 µM; in experiment [3] (Table D1), more than 0.4 µM.

With `O=C(Cc1cccnc1)Nc1ccc2cc1CCc1cccc(c1)Nc1ncc(Cl)c(n1)N2` [Example C39, N-[6-Chloro-2,4,8,22-tetraazatetracyclo[14.3.1.1(3,7).1(9,13)]docosa-1(20),3(22),4,6,9(21),10,12,16,18-nonaen-12-yl]-2-pyridin-3-ylacetamide bis(trifluoroacetate)], the IC50 in experiment [1] was 0.029 µM; in experiment [2], 0.054 µM; against TYK2 it was 0.195 µM; in experiment [3], 1.22 µM.

With `O=C(c1ccc(C(F)(F)F)cc1)N1CCN(c2ccc3cc2CCc2cccc(c2)Nc2ncc(Cl)c(n2)N3)CC1` [Example D96, 6-Chloro-12-{4-[4-(trifluoromethyl)benzoyl]piperazin-1-yl}-2,4,8,22-tetraazatetracyclo[14.3.1.1(3,7).1(9,13)]docosa-1(20),3(22),4,6,9(21),10,12,16,18-nonaene bis(trifluoroacetate)], the IC50 came to 0.049 µM in experiment [1] (Table D1), 0.112 µM in experiment [2] (Table D1), 0.195 µM against TYK2 (Table D1) and 0.149 µM in experiment [3] (Table D1).

Turning to `Clc1cnc2nc1Nc1ccc(NCCC3CCNCC3)c(c1)CCc1cncc(c1)N2` [Example D216, 6-Chloro-N-(2-piperidin-4-ylethyl)-2,4,8,18,22-pentaazatetracyclo[14.3.1.1(3,7).1(9,13)]docosa-1(20),3(22),4,6,9(21),10,12,16,18-nonaen-12-amine tetrakis(trifluoroacetate)], the IC50 is 0.276 µM in experiment [1] (Table D1), 0.023 µM in experiment [2] (Table D1), 0.3 µM against TYK2 (Table D1) and more than 0.4 µM in experiment [3] (Table D1).

`CN1c2cccc(c2)CCc2cccc(c2)Nc2nccc1n2` [Example D223, 8-Methyl-2,4,8,22-tetraazatetracyclo[14.3.1.1(3,7).1(9,13)]docosa-1(20),3(22),4,6,9(21),10,12,16,18-nonaene trifluoroacetate]: the IC50 in experiment [1] (Table D1) was 0.106 µM; in experiment [2] (Table D1), more than 0.4 µM; on TYK2 (Table D1) it was more than 0.4 µM; in experiment [3] (Table D1) it was more than 0.4 µM.

Consider `N#Cc1ccccc1S(=O)(=O)N1CCC(CCNc2ccc3cc2CCc2cncc(c2)Nc2ncc(Cl)c(n2)N3)CC1` [Example D222, 2-{[4-(2-{[6-Chloro-2,4,8,18,22-pentaazatetracyclo[14.3.1.1(3,7).1(9,13)]docosa-1(20),3(22),4,6,9(21),10,12,16,18-nonaen-12-yl]amino}ethyl)piperidin-1-yl]sulfonyl}benzonitrile tris(trifluoroacetate)], for which the IC50 in experiment [1] (Table D1) is 0.111 µM; in experiment [2] (Table D1), 0.021 µM; on TYK2 (Table D1), 0.09 µM; in experiment [3] (Table D1), more than 0.4 µM.

For the compound `O=C(Nc1cccc(C(F)(F)F)c1)N1CCN(c2ccc3cc2CCc2cccc(c2)Nc2ncc(Cl)c(n2)N3)CC1` [Example D91, 4-[6-Chloro-2,4,8,22-tetraazatetracyclo[14.3.1.1(3,7).1(9,13)]docosa-1(20),3(22),4,6,9(21),10,12,16,18-nonaen-12-yl]-N-[3-(trifluoromethyl)phenyl]piperazine-1-carboxamide bis(trifluoroacetate)], the IC50 is 0.032 µM in experiment [1] (Table D1), 0.146 µM in experiment [2] (Table D1), 0.156 µM at TYK2 (Table D1) and 0.133 µM in experiment [3] (Table D1).

On to `O=C(C[C@H]1CCCN(C(=O)c2ccccc2)C1)Nc1ccc2cc1CCc1cncc(c1)Nc1ncc(Cl)c(n1)N2` [Example D207, 2-[(3R)-1-Benzoylpiperidin-3-yl]-N-[6-chloro-2,4,8,18,22-pentaazatetracyclo[14.3.1.1(3,7).1(9,13)]docosa-1(20),3(22),4,6,9(21),10,12,16,18-nonaen-12-yl]acetamide bis(trifluoroacetate)], for which the IC50 is 0.0054 µM in experiment [1] (Table D1), 0.0094 µM in experiment [2] (Table D1), 0.056 µM against TYK2 (Table D1) and 0.109 µM in experiment [3] (Table D1).

On to `O=C(CC1CN(C(=O)c2ccn[nH]2)C1)Nc1ccc2cc1CCc1cncc(c1)Nc1ncc(Cl)c(n1)N2` [Example D150, N-[6-Chloro-2,4,8,18,22-pentaazatetracyclo[14.3.1.1(3,7).1(9,13)]docosa-1(20),3(22),4,6,9(21),10,12,16,18-nonaen-12-yl]-2-[1-(1H-pyrazol-5-ylcarbonyl)azetidin-3-yl]acetamide bis(trifluoroacetate)], for which the IC50 in experiment [1] (Table D1) is 0.136 µM; in experiment [2] (Table D1), 0.033 µM; against TYK2 (Table D1), 0.435 µM; in experiment [3] (Table D1), more than 1 µM.

Turning to `Cc1cc(CC(=O)Nc2ccc3cc2CCc2cccc(c2)Nc2ncc(Cl)c(n2)N3)on1` [Example C30, N-[6-Chloro-2,4,8,22-tetraazatetracyclo[14.3.1.1(3,7).1(9,13)]docosa-1(20),3(22),4,6,9(21),10,12,16,18-nonaen-12-yl]-2-(3-methylisoxazol-5-yl)acetamide trifluoroacetate], the IC50 is 0.056 µM in experiment [1], 0.031 µM in experiment [2], 0.136 µM at TYK2 and 0.99 µM in experiment [3].
